According to ChEMBL document CHEMBL5352429, “Designed symmetrical β-hairpin peptides for treating multidrug-resistant salmonella typhimurium infections” (Eur J Med Chem, 2022):
Values after ≈ are worked out from the molar mass of the structure shown. Active and inactive are the calls of the source. The rule behind the calls is not given here. Peptide text beside a SMILES is read from it.

Key:
[1] = system: Salmonella typhimurium; assay: Antibacterial activity against Salmonella typhimurium CICC 21913 incubated overnight by standard microtiter dilution method; assay type: functional, Salmonella enterica subsp. enterica serovar Typhimurium; details: Salmonella enterica
[2] = Antibacterial activity against Salmonella paratyphi C CICC 21512 incubated overnight by standard microtiter dilution method; assay type: functional, Salmonella enterica subsp. enterica serovar Paratyphi C; details: Salmonella enterica
[3] = system: Salmonella paratyphi; assay: Antibacterial activity against Salmonella paratyphi A CICC 21501 incubated overnight by standard microtiter dilution method; assay type: functional, Salmonella enterica subsp. enterica serovar Paratyphi A; details: Salmonella enterica
[4] = Antibacterial activity against Salmonella enterica subsp. enterica serovar Choleraesuis CICC 21493 incubated overnight by standard microtiter dilution method; assay type: functional
[5] = Cytotoxicity against mouse RAW264.7 cells assessed as cell viability at 128 ug/ml incubated for 24 hrs by MTT assay; assay type: toxicity, cell-based; details: at 128 µg/mL, read-out: Activity
[6] = system: Escherichia coli; assay: Antibacterial activity against Escherichia coli O157:H7 CICC 21530 incubated overnight by standard microtiter dilution method; assay type: functional
[7] = system: Salmonella typhimurium; assay: Antibacterial activity against Salmonella typhimurium DT104 in the presence 50% inactivated mouse serum by MH broth based assay; assay type: functional, Salmonella enterica subsp. enterica serovar Typhimurium; details: Salmonella enterica
[8] = system: Lipopolysaccharide (LPS); assay: Displacement of BODIPY-TR-cadaverine from Salmonella typhimurium LPS assessed as increase in fluorescence intensity by fluorescence spectrophotometric analysis; details: Salmonella enterica subsp. enterica serovar Typhimurium; dose 0.25-8 µg/ml
[9] = system: Enterococcus faecalis; assay: Antibacterial activity against Enterococcus faecalis ATCC 29212 incubated overnight by standard microtiter dilution method; assay type: functional
[10] = system: Salmonella typhimurium; assay: Antibacterial activity against Salmonella typhimurium DT104 in the presence of NaCl by MH broth based assay; assay type: functional, Salmonella enterica subsp. enterica serovar Typhimurium; details: Salmonella enterica
[11] = Antibacterial activity against Salmonella dublin CICC 21497 incubated overnight by standard microtiter dilution method; assay type: functional, Salmonella enterica subsp. enterica serovar Dublin; details: Salmonella enterica
[12] = system: Salmonella enterica subsp. enterica serovar Paratyphi B; assay: Antibacterial activity against Salmonella paratyphi B CICC 21495 incubated overnight by standard microtiter dilution method; assay type: functional
[13] = system: Candida albicans; assay: Antifungal activity against Candida albicans ATCC 10231 incubated overnight by standard microtiter dilution method; assay type: functional
[14] = system: Salmonella typhimurium; assay: Antibacterial activity against Salmonella typhimurium CICC 21483 incubated overnight by standard microtiter dilution method; assay type: functional, Salmonella enterica subsp. enterica serovar Typhimurium; details: Salmonella enterica
[15] = system: Salmonella typhimurium; assay: Antibacterial activity against Salmonella typhimurium DT104 in the presence of NH4Cl by MH broth based assay; assay type: functional, Salmonella enterica subsp. enterica serovar Typhimurium; details: Salmonella enterica
[16] = system: Staphylococcus aureus; assay: Antibacterial activity against Staphylococcus aureus ATCC 29213 incubated overnight by standard microtiter dilution method; assay type: functional
[17] = system: Cell membrane; assay: Disruption of membrane integrity in Salmonella typhimurium DT104 assessed as increase in fluorescence intensity at 0.5 to 2 times of MIC incubated for 15 mins by PI staining based flow cytometric analysis; assay type: subcellular; details: Salmonella enterica subsp. enterica serovar Typhimurium
[18] = system: RAW264.7; assay: Inhibition of LPS-stimulated IL-8 production in mouse RAW264.7 cells at 1 to 128 ug/ml incubated for 24 hrs by ELISA analysis; assay type: functional, cell-based; details: dose 1-128 µg/ml
[19] = system: RAW264.7; assay: Inhibition of LPS-stimulated NO production in mouse RAW264.7 cells incubated for 24 hrs by Griess reagent based analysis; assay type: functional, cell-based; details: dose 1-128 µg/ml
[20] = Antibacterial activity against Salmonella blockley CICC 21489 incubated overnight by standard microtiter dilution method; assay type: functional, Salmonella enterica subsp. enterica serovar Blockley; details: Salmonella enterica
[21] = system: Salmonella typhimurium; assay: Antibacterial activity against Salmonella typhimurium DT104 in the presence of CaCl2 by MH broth based assay; assay type: functional, Salmonella enterica subsp. enterica serovar Typhimurium; details: Salmonella enterica
[22] = system: Salmonella typhimurium; assay: Antibacterial activity against Salmonella typhimurium DT104 in the presence of MgCl2 by MH broth based assay; assay type: functional, Salmonella enterica subsp. enterica serovar Typhimurium; details: Salmonella enterica
[23] = system: RAW264.7; assay: Inhibition of LPS-stimulated IL-1beta production in mouse RAW264.7 cells at 1 to 128 ug/ml incubated for 24 hrs by ELISA analysis; assay type: functional, cell-based; details: dose 1-128 µg/ml
[24] = system: RAW264.7; assay: Inhibition of LPS-stimulated TNF-alpha production in mouse RAW264.7 cells at 1 to 128 ug/ml incubated for 24 hrs by ELISA analysis; assay type: functional, cell-based; details: dose 1-128 µg/ml
[25] = system: Salmonella typhimurium; assay: Antibacterial activity against Salmonella typhimurium DT104 in the presence of FeCl3 by MH broth based assay; assay type: functional, Salmonella enterica subsp. enterica serovar Typhimurium; details: Salmonella enterica
[26] = system: Staphylococcus aureus; assay: Antibacterial activity against methicillin-resistant Staphylococcus aureus ATCC 43300 incubated overnight by standard microtiter dilution method; assay type: functional
[27] = system: Erythrocyte; assay: Hemolytic activity in human Red blood cells assessed as hemolysis incubated for 1 hrs by absorbance based microplate reader analysis; assay type: toxicity, cell-based
[28] = system: Staphylococcus epidermidis; assay: Antibacterial activity against methicillin-resistant Staphylococcus epidermidis ATCC 12228 incubated overnight by standard microtiter dilution method; assay type: functional
[29] = system: Salmonella typhimurium; assay: Antibacterial activity against multi-drug resistant Salmonella typhimurium DT104 assessed as inhibition of bacterial growth at 0.5 to 2 times of MIC by MH agar based serial dilution method; assay type: functional, organism-based; details: Salmonella enterica subsp. enterica serovar Typhimurium, time <= 120.0 min, TDE = time-dependent effect
[30] = Hemolytic activity in human Red blood cells assessed as hemolysis at 128 ug/ml incubated for 1 hrs by absorbance based microplate reader analysis relative to control; assay type: toxicity, cell-based, Erythrocyte; details: red blood cells (erythrocytes), at 128 µg/mL, read-out: Activity
[31] = system: Salmonella typhimurium; assay: Antibacterial activity against Salmonella typhimurium DT104 in the presence of KCl by MH broth based assay; assay type: functional, Salmonella enterica subsp. enterica serovar Typhimurium; details: Salmonella enterica
[32] = system: Salmonella enteritidis; assay: Antibacterial activity against Salmonella enteritidis CICC 21527 incubated overnight by standard microtiter dilution method; assay type: functional, Salmonella enterica subsp. enterica serovar Enteritidis; details: Salmonella enterica
[33] = Antibacterial activity against Salmonella wandsworth CICC 21504 incubated overnight by standard microtiter dilution method; assay type: functional, Salmonella enterica subsp. enterica serovar Wandsworth; details: Salmonella enterica
[34] = Antibacterial activity against Salmonella enterica subsp. enterica serovar Choleraesuis ATCC 13312 incubated overnight by standard microtiter dilution method; assay type: functional
[35] = system: Salmonella typhimurium; assay: Antibacterial activity against Salmonella typhimurium DT104 in the presence 25% inactivated mouse serum by MH broth based assay; assay type: functional, Salmonella enterica subsp. enterica serovar Typhimurium; details: Salmonella enterica
[36] = system: Salmonella typhimurium; assay: Antibacterial activity against Salmonella typhimurium DT104 ATCC 700408 incubated overnight by standard microtiter dilution method; assay type: functional, Salmonella enterica subsp. enterica serovar Typhimurium; details: Salmonella enterica
[37] = system: Salmonella typhimurium; assay: Antibacterial activity against multi-drug resistant Salmonella typhimurium DT104 assessed as inhibition of bacterial growth measured upto 120 mins by MH agar based serial dilution method; assay type: functional, organism-based; details: Salmonella enterica subsp. enterica serovar Typhimurium

| SMILES | MIC [1] [µg/mL] | MIC [2] [µg/mL] | MIC [3] [µg/mL] | MIC [4] [µg/mL] | MIC [6] [µg/mL] | MIC [7] [µg/mL] | Activity [8] | MIC [9] [µg/mL] | MIC [10] [µg/mL] | MIC [11] [µg/mL] | MIC [12] [µg/mL] | MIC [13] [µg/mL] | MIC [14] [µg/mL] | MIC [15] [µg/mL] | MIC [16] [µg/mL] | Activity [17] | inhibition [18] | inhibition [19] | MIC [20] [µg/mL] | MIC [21] [µg/mL] | further results |
| --- | --- | --- | --- | --- | --- | --- | --- | --- | --- | --- | --- | --- | --- | --- | --- | --- | --- | --- | --- | --- | --- |
| CC(C)C[C@H](NC(=O)[C@H](CCCCN)NC(=O)[C@H](CC(C)C)NC(=O)[C@H](CCCCN)NC(=O)[C@H](CC(C)C)NC(=O)[C@H](CCCCN)NC(=O)[C@H](CS)NC(=O)CNC(=O)[C@H](CO)NC(=O)[C@H](CCCCN)NC(=O)[C@@H](NC(=O)[C@H](CS)NC(=O)[C@H](CCCCN)NC(=O)[C@H](CC(C)C)NC(=O)[C@H](CCCCN)NC(=O)[C@H](CC(C)C)NC(=O)[C@H](CCCCN)NC(=O)[C@@H](N)CC(C)C)[C@@H](C)O)C(N)=O (H-LKLKLKCTKSGCKLKLKL-NH2) | > 128 | 4 (≈ 1.96 µM) | > 128 | 128 (≈ 62.6 µM) | 8 (≈ 3.91 µM) | > 128 | Dose-Dependent Effect | 64 (≈ 31.3 µM) | > 128 | 32 (≈ 15.6 µM) | 4 (≈ 1.96 µM) | 128 (≈ 62.6 µM) | 128 (≈ 62.6 µM) | > 128 | > 128 | Active | Active | Dose-Dependent Effect | 128 (≈ 62.6 µM) | > 128 | viability at 24 h, 128 ug/ml [5]: 14.2%; MIC [22]: > 128 µg/mL; inhibition [23]: Active; inhibition [24]: Active; MIC [25]: > 128 µg/mL; MIC [26]: > 128 µg/mL; MHC [27]: 64 µg/mL; MIC [28]: 32 µg/mL (≈ 15.6 µM); Activity [29]: Tde; hemolysis at 1 h, 128 ug/ml [30]: 16.4%; MIC [31]: > 128 µg/mL; MIC [32]: 64 µg/mL (≈ 31.3 µM); MIC [33]: 128 µg/mL (≈ 62.6 µM); MIC [34]: 4 µg/mL (≈ 1.96 µM); MIC [35]: > 128 µg/mL; MIC [36]: 64 µg/mL (≈ 31.3 µM); Activity [37]: Dose-Dependent Effect |
| CC(C)[C@H](N)C(=O)N[C@@H](CCCCN)C(=O)N[C@H](C(=O)N[C@@H](CCCCN)C(=O)N[C@@H](CS)C(=O)N[C@H](C(=O)N[C@@H](CCCCN)C(=O)N[C@@H](CO)C(=O)NCC(=O)N[C@@H](CS)C(=O)N[C@@H](CCCCN)C(=O)N[C@H](C(=O)N[C@@H](CCCCN)C(=O)N[C@H](C(N)=O)C(C)C)C(C)C)[C@@H](C)O)C(C)C (H-VKVKCTKSGCKVKV-NH2) | > 128 | 64 (≈ 42.5 µM) | > 128 | > 128 | 64 (≈ 42.5 µM) | > 128 | Dose-Dependent Effect | > 128 | > 128 | > 128 | 16 (≈ 10.6 µM) | 16 (≈ 10.6 µM) | > 128 | > 128 | > 128 | Active | Active | Dose-Dependent Effect | > 128 | > 128 | MIC [22]: > 128 µg/mL; inhibition [23]: Active; inhibition [24]: Active; MIC [25]: > 128 µg/mL; MIC [26]: > 128 µg/mL; MHC [27]: > 128 µg/mL; MIC [28]: > 128 µg/mL; hemolysis at 1 h, 128 ug/ml [30]: < 10%; MIC [31]: > 128 µg/mL; MIC [32]: > 128 µg/mL; MIC [33]: > 128 µg/mL; MIC [34]: 4 µg/mL (≈ 2.66 µM); MIC [35]: > 128 µg/mL; MIC [36]: > 128 µg/mL |
